The results in this text go back to patent US20240208912A1 (Mirati Therapeutics, Inc., priority 2021, published 2024).

One experiment addresses T1, PRMT5/MEP50 complex (Homo sapiens, UniProt O14744).
T1 construct: purchased Reaction Biology Corporation
As to the kind of experiment: PRMT5:MEP50 HotSpot Assay (full-length histone H2A substrate, plus and minus MTA). The experiment is classed as biochemical. To be noted: IC50 + 2 μM MTA, in the presence of 2 μM MTA. The method in brief: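 Radiometric HotSpot format using recombinant full-length histone H2A as substrate, run with and without MTA. Reactions were stopped and spotted onto filter paper. Tritiated H2A was quantified by scintillation counting.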

Experiment [1] concerns HCT116 homozygous MTAP knockout cells. As to the kind of experiment: Proliferation assay (CellTiter-Glo, 10 days) in HCT116 homozygous MTAP knockout cells. The experiment is classed as cell-based. Particulars: CellTiter-Glo after 10 days of treatment, read-out: Proliferation IC50 (nM) HCT116 MTAP_KO. The method in brief:
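MTAP-null HCT116 clone made by CRISPR/Cas9 knockout of both alleles, tested beside parental cells. Cells dosed the day after seeding, split 1:10 on day 6 into fresh medium with the same compound level, and read on day 11 by CellTiter-Glo. IC50 taken after 10 days of exposure.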
(In general: Cellular ATP, detected with luciferase, serves as a proxy for viable cell number.)

Experiment [2] relates to PRMT5-dependent Symmetric Di-methyl Arginine signal in HCT116 homozygous MTAP Knockout cells. As to the kind of experiment: SYM11 In-Cell Western in HCT116 homozygous MTAP knockout cells. The experiment is classed as cell-based. Particulars: 4 days of treatment, SYM11/DRAQ5 ratio as percent of DMSO control, read-out: In-cell-Western (SYM11) IC50 (nM) HCT116 MTAP_KO. The protocol: HCT116 cells were genetically engineered to knock out the function of both MTAP alleles using a CRISPR/Cas9 system and an sgRNA targeting the MTAP gene. Following Cas9/MTAP sgRNA transduction, clones were screened to confirm that each allele of the MTAP gene had been inactivated (i.e., homozygous MTAP knock out) creating an MTAP-deficient cell.
Control samples were analyzed in parallel.
Briefly, on Day 0, 2,000 HCT116 parental or HCT116 homozygous MTAP knockout cells were seeded in 96 well plates in McCoy's 5A supplemented with 10% fetal bovine serum and pen/strep and the cells were incubated overnight at 37° C. plus 5% CO2. The following day, cells were treated with DMSO vehicle control or a dose response of PRMT5 inhibitors, and incubated at 37° C. plus 5% CO^2 for four days.
After 4 days of treatment, the cells were fixed by adding 50 μl of 4% paraformaldehyde solution to each well and the cells were incubated for 20 min at room temperature. The paraformaldehyde solution was removed, 150 μl of ice-cold methanol was added and the plate was placed −20° C. for 10 minutes. The methanol was removed, 150 μl of Odyssey Blocking buffer+0.05% Tween20 was added and the plate was incubated at room temperature with shaking for one hour.
The primary SYM11 antibody solution was removed by aspiration and the wells were washed three consecutive times with phosphate buffered saline containing 0.1% Tween-20 (PBST).
The secondary antibody solution was removed by aspiration and the wells were washed three consecutive times with PBST.
The SYM11 signal and the DRAQ5 signal were quantified using a Li-Cor Odyssey machine reading at […], respectively. The SYM11/DRAQ5 ratio was used to calculate the inhibition of Symmetric Dimethyl Arginine as percent of DMSO control.

Read-outs that look alike come from different tables or passages of the source.

T1 sequence (O14744 2-637 limits assumed): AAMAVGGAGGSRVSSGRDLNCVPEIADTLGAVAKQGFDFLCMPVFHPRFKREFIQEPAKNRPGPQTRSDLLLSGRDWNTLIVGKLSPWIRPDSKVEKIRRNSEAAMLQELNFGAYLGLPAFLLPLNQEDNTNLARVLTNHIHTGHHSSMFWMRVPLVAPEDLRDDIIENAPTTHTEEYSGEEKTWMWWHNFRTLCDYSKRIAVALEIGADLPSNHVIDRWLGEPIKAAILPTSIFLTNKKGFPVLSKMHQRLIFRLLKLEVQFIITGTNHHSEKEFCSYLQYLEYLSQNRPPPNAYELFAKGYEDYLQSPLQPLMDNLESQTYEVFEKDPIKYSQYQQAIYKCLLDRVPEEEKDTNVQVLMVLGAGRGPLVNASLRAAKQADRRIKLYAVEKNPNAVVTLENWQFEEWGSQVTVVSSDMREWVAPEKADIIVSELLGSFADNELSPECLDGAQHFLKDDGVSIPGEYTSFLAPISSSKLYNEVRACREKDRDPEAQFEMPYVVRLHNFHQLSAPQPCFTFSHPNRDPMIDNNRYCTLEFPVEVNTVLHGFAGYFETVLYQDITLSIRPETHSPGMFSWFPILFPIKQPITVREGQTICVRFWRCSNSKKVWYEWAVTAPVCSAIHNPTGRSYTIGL
T1 sequence (Q9BQA1 2-342 partner limits assumed): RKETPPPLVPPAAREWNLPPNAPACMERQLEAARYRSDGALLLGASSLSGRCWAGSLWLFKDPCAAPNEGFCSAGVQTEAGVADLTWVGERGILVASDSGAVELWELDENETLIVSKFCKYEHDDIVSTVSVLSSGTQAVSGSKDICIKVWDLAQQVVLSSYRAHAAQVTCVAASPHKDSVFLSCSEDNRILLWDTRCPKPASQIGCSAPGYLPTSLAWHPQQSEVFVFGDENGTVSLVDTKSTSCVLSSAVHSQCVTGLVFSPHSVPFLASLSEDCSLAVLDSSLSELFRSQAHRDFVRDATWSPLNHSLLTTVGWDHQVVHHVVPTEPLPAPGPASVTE

With `Cc1cc(-c2cnn(C)c2-c2c(F)ccc(OC3CC3)c2C#N)cc2c(CN)n[nH]c(=O)c12` (atropisomer, axis not shown; (M)) [Example 16-48, (M)-2-[4-[4-(aminomethyl)-8-methyl-1-oxo-2H-phthalazin-6-yl]-2-methyl-pyrazol-3-yl]-6-(cyclopropoxy)-3-fluoro-benzonitrile], the IC50 at PRMT5/MEP50 complex came to 0.128 µM; in experiment [1], 19 nM; in experiment [2] it was 10 nM.

Take `Cn1ncc(-c2cc(Cl)c3c(=O)[nH]nc(CN)c3c2)c1-c1c(F)ccc(OC2CC2)c1C#N` (atropisomer, axis not shown; (M)) [Example 16-56, (M)-2-[4-[4-(aminomethyl)-8-chloro-1-oxo-2H-phthalazin-6-yl]-2-methyl-pyrazol-3-yl]-6-(cyclopropoxy)-3-fluoro-benzonitrile]: the IC50 at PRMT5/MEP50 complex was 0.113 µM; in experiment [1], 22 nM; in experiment [2], 9 nM.

Regarding `Cc1cc(-c2cnn(C)c2-c2c(F)ccc(OC3CC3)c2C#N)cc2c(CN)n[nH]c(=O)c12` (atropisomer, axis not shown; (P)) [Example 16-47, (P)-2-[4-[4-(aminomethyl)-8-methyl-1-oxo-2H-phthalazin-6-yl]-2-methyl-pyrazol-3-yl]-6-(cyclopropoxy)-3-fluoro-benzonitrile], the IC50 worked out at 0.304 µM on PRMT5/MEP50 complex; 51 nM in experiment [1]; 11 nM in experiment [2] (Homo sapiens, HCT-116, 96 h).

For `Cn1ncc(-c2cc(Cl)c3c(=O)[nH]nc(CN)c3c2)c1-c1c(F)ccc(OC2CC2)c1C#N` (atropisomer, axis not shown; (P)) [Example 16-55, (P)-2-[4-[4-(aminomethyl)-8-chloro-1-oxo-2H-phthalazin-6-yl]-2-methyl-pyrazol-3-yl]-6-(cyclopropoxy)-3-fluoro-benzonitrile], the IC50 on PRMT5/MEP50 complex stood at 0.26 µM; in experiment [1], 77 nM; in experiment [2], 57 nM.

For the compound `Cn1ncc(-c2ccc3c(=O)[nH]nc(CN)c3c2)c1-c1c(C#N)cc2ccccc2c1Cl` (single isomer, unassigned) [Example 16-5], the IC50 at PRMT5/MEP50 complex came out at 0.994 µM; in experiment [1] it was 2850 nM; in experiment [2], 272 nM.

Consider `Cn1ncc(-c2ccc3c(=O)[nH]nc(CN)c3c2)c1-c1c(C#N)cc2ccccc2c1Cl` (single isomer, unassigned) [Example 16-6], for which the IC50 on PRMT5/MEP50 complex is 0.028 µM; in experiment [1], 64 nM; in experiment [2], 20 nM.

Regarding `Cn1ncc(-c2ccc3c(=O)[nH]nc(CN)c3c2)c1-c1c(F)c(Cl)c2ccccc2c1C#N` (single isomer, unassigned) [Example 16-9, (P)-2-[4-[4-(aminomethyl)-1-oxo-2H-phthalazin-6-yl]-2-methyl-pyrazol-3-yl]-4-chloro-3-fluoro-naphthalene-1-carbonitrile], the values for the IC50 (on PRMT5/MEP50 complex; in experiment [1]; in experiment [2]) were 0.248 µM, 307 nM and 93 nM, respectively.

As to `Cn1ncc(-c2ccc3c(=O)[nH]nc(CN)c3c2)c1-c1c(F)c(Cl)c2ccccc2c1C#N` (single isomer, unassigned) [Example 16-10, (M)-2-[4-[4-(aminomethyl)-1-oxo-2H-phthalazin-6-yl]-2-methyl-pyrazol-3-yl]-4-chloro-3-fluoro-naphthalene-1-carbonitrile], the IC50 at PRMT5/MEP50 complex is 0.0158 µM; in experiment [1], 10 nM; in experiment [2], 3 nM.

As to `Cc1cc(-c2cnn(C)c2-c2c(F)cc3ccccc3c2C#N)cc2c(CN)n[nH]c(=O)c12` (single isomer, unassigned) [Example 16-15, (P)-2-[4-[4-(aminomethyl)-8-methyl-1-oxo-2H-phthalazin-6-yl]-2-methyl-pyrazol-3-yl]-3-fluoro-naphthalene-1-carbonitrile], the IC50 turned out to be 0.095 µM on PRMT5/MEP50 complex, 33 nM in experiment [1] and 17 nM in experiment [2].

For the compound `Cc1cc(-c2cnn(C)c2-c2c(F)cc3ccccc3c2C#N)cc2c(CN)n[nH]c(=O)c12` (single isomer, unassigned) [Example 16-16, (M)-2-[4-[4-(aminomethyl)-8-methyl-1-oxo-2H-phthalazin-6-yl]-2-methyl-pyrazol-3-yl]-3-fluoro-naphthalene-1-carbonitrile], the IC50 turned out to be 0.0136 µM at PRMT5/MEP50 complex, 6 nM in experiment [1] and 6 nM in experiment [2].

On to `Cc1c(F)c(-c2c(-c3cc(C)c4c(=O)[nH]nc(CN)c4c3)cnn2C)c(C#N)c2ccccc12` (single isomer, unassigned) [Example 16-41, (P)-2-[4-[4-(aminomethyl)-8-methyl-1-oxo-2H-phthalazin-6-yl]-2-methyl-pyrazol-3-yl]-3-fluoro-4-methyl-naphthalene-1-carbonitrile], for which the figures for the IC50 (at PRMT5/MEP50 complex; in experiment [1]; in experiment [2]) were 0.64 µM, 290 nM and 246 nM, respectively.

`Cc1c(F)c(-c2c(-c3cc(C)c4c(=O)[nH]nc(CN)c4c3)cnn2C)c(C#N)c2ccccc12` (single isomer, unassigned) [Example 16-42, (M)-2-[4-[4-(aminomethyl)-8-methyl-1-oxo-2H-phthalazin-6-yl]-2-methyl-pyrazol-3-yl]-3-fluoro-4-methyl-naphthalene-1-carbonitrile]: the IC50 at PRMT5/MEP50 complex came to 0.00455 µM; in experiment [1], 7 nM; in experiment [2] it was 6 nM.

`Cc1cc(OC2CC2)c(C#N)c(-c2c(-c3cc(C)c4c(=O)[nH]nc(CN)c4c3)cnn2C)c1F` (single isomer, unassigned) [Example 16-43, (P)-2-(4-(4-(aminomethyl)-8-methyl-1-oxo-1,2-dihydrophthalazin-6-yl)-1-methyl-1H-pyrazol-5-yl)-6-cyclopropoxy-3-fluoro-4-methylbenzonitrile]: the IC50 was 2 µM on PRMT5/MEP50 complex, 1300 nM in experiment [1] and 656 nM in experiment [2].

For `Cc1cc(OC2CC2)c(C#N)c(-c2c(-c3cc(C)c4c(=O)[nH]nc(CN)c4c3)cnn2C)c1F` (single isomer, unassigned) [Example 16-44, (M)-2-(4-(4-(aminomethyl)-8-methyl-1-oxo-1,2-dihydrophthalazin-6-yl)-1-methyl-1H-pyrazol-5-yl)-6-cyclopropoxy-3-fluoro-4-methylbenzonitrile], the values for the IC50 (at PRMT5/MEP50 complex; in experiment [1]; in experiment [2]) were 0.0695 µM, 20 nM and 13 nM, respectively.

With `Cc1cc(-c2cnn(C)c2-c2c(F)c(Cl)cc(OC3CC3)c2C#N)cc2c(CN)n[nH]c(=O)c12` (single isomer, unassigned) [Example 16-45, (P)-2-[4-[4-(aminomethyl)-8-methyl-1-oxo-2H-phthalazin-6-yl]-2-methyl-pyrazol-3-yl]-4-chloro-6-(cyclopropoxy)-3-fluoro-benzonitrile], the IC50 at PRMT5/MEP50 complex is 1.97 µM; in experiment [1], 798 nM; in experiment [2], 282 nM.

For the compound `Cc1cc(-c2cnn(C)c2-c2c(F)c(Cl)cc(OC3CC3)c2C#N)cc2c(CN)n[nH]c(=O)c12` (single isomer, unassigned) [Example 16-46, (M)-2-[4-[4-(aminomethyl)-8-methyl-1-oxo-2H-phthalazin-6-yl]-2-methyl-pyrazol-3-yl]-4-chloro-6-(cyclopropoxy)-3-fluoro-benzonitrile], the IC50 worked out at 0.0419 µM on PRMT5/MEP50 complex, 7 nM in experiment [1] and 6 nM in experiment [2].

As for `CCc1cccc(-c2c(-c3cc4c(CN)n[nH]c(=O)c4cn3)cnn2C)c1C#N` [Example 17-1, 2-[4-[1-(aminomethyl)-4-oxo-3H-pyrido[3,4-d]pyridazin-7-yl]-2-methyl-pyrazol-3-yl]-6-ethyl-benzonitrile], the IC50 came out at 3870 nM in experiment [1] (Homo sapiens, HCT-116, 240 h) and 538 nM in experiment [2] (Homo sapiens, HCT-116, 96 h).

For `Cn1ncc(-c2ccc3c(=O)[nH]nc(CN)c3c2F)c1-c1ccc2ccccc2c1C#N` [Example 17-2, 2-[4-[4-(aminomethyl)-5-fluoro-1-oxo-2H-phthalazin-6-yl]-2-methyl-pyrazol-3-yl]naphthalene-1-carbonitrile], the IC50 came to 432 nM in experiment [1] (Homo sapiens, HCT-116, 240 h) and 80 nM in experiment [2] (Homo sapiens, HCT-116, 96 h).
